target: T1, BACE2 (Rattus norvegicus, UniProt Q6IE75); assay: Assay for BACE inhibition by measuring cellular TMEM27 cleavage (INS-TMEM27 cells, ELISA of shed TMEM27); format: cell-based; conditions: inhibition of human TMEM27 cleavage by endogenous cellular BACE2 in INS1e-derived INS-TMEM27 rat cell line; ELISA of shed TMEM27 in supernatant
T1 construct: endogenous cellular BACE2 in the Ins1e rat cell line; endogenous in cells; host or cells: INS-TMEM27 (INS1e-derived rat beta-cell line with doxycycline-inducible full-length hTMEM27)
T1 sequence (Q6IE75 63-514): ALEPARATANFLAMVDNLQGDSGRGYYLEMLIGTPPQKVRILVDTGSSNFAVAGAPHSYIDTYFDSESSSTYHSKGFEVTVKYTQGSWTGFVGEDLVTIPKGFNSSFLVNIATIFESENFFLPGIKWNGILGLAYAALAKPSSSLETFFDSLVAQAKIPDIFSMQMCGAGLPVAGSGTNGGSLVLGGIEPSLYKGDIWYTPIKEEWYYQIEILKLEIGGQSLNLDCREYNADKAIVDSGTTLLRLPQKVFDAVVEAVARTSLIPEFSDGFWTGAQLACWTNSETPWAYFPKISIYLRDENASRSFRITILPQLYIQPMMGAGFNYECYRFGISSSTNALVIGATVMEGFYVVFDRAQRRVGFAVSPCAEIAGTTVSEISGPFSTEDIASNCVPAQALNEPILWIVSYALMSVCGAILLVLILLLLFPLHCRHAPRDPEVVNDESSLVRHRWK
From the text: Assay for […] Inhibition by Measuring Cellular TMEM27 Cleavage
This assay uses the principle of inhibition of human TMEM27 cleavage by endogenous cellular BACE2 in the Ins1e rat cell line and shedding from the cell surface into the culture medium, followed by detection in an ELISA assay. Inhibition of BACE2 prevents the cleavage and shedding in a dose-dependent manner.
The stable cell line “INS-TMEM27” represents an INS1e-derived cell line with inducible expression (using the TetOn system) of full-length hTMEM27 in a doxycycline-dependent manner. The cells were cultured throughout the experiment in RPMI1640+Glutamax (Invitrogen) Penicillin/Streptomycin, 10% Fetal bovine serum, 100 mM pyruvate, […] beta-mercatptoethanol, 100 micrograms/ml G418 and 100 microgram/ml hygromycin and were grown in adherent culture at 37° C. in a standard CO2 cell culture incubator.
INS-TMEM27 cells were seeded in 96-well plates. After 2 days in culture, BACE2 inhibitor was added in a range of concentrations as required by the assay and after a further two hours, doxycycline was added to a final concentration of 500 ng/ml. The cells were incubated for a further 46 hours and the supernatant harvested for detection of shed TMEM27.
An ELISA assay (using a pair of mouse anti-human-TMEM27 antibodies, raised against the extracellular domain of TMEM27) was used for detection of TMEM27 in the culture medium. An IC50 for BACE2 inhibition was calculated using the ELISA readout for each inhibitor concentration with standard curve-fitting software.
The inhibitory activity, given as an IC50 value, of the compounds of Examples 1 to 32 and 34 to 74 were as follows.

SMILES	IC50
O=C(N[C@@H](Cc1ccccc1)[C@H](O)CNCc1cccc(OC(F)(F)F)c1)c1cccc(C(=O)N2CCCC2c2ccccc2)c1 (stereo partly drawn) [Example 24, N-[(1S,2R)-1-Benzyl-2-hydroxy-3-(3-trifluoromethoxy-benzylamino)-propyl]-3-(2-phenyl-pyrrolidine-1-carbonyl)-benzamide]	0.068 µM
O=C(N[C@@H](Cc1ccccc1)[C@H](O)CNCc1cccc(OC(F)(F)F)c1)c1cccc(C(=O)N2CCCC2c2cccnc2)c1 (stereo partly drawn) [Example 25, N-[(1S,2R)-1-Benzyl-2-hydroxy-3-(3-trifluoromethoxy-benzylamino)-propyl]-3-(2-pyridin-3-yl-pyrrolidine-1-carbonyl)-benzamide]	0.07 µM
Cc1cc(C2CCCN2C(=O)c2cccc(C(=O)N[C@@H](Cc3ccccc3)[C@H](O)CNCc3cccc(OC(F)(F)F)c3)c2)on1 (stereo partly drawn) [Example 26, N-[(1S,2R)-1-Benzyl-2-hydroxy-3-(3-trifluoromethoxy-benzylamino)-propyl]-3-[2-(3-methyl-isoxazol-5-yl)-pyrrolidine-1-carbonyl]-benzamide]	0.284 µM
CN(Cc1ccccn1)C(=O)c1cccc(C(=O)N[C@@H](Cc2ccccc2)[C@H](O)CNCc2cccc(OC(F)(F)F)c2)c1 [Example 29, N-[(1S,2R)-1-Benzyl-2-hydroxy-3-(3-trifluoromethoxy-benzylamino)-propyl]-N′-methyl-N′-pyridin-2-ylmethyl-isophthalamide]	0.112 µM
CCn1cc(CNC[C@@H](O)[C@H](Cc2ccccc2)NC(=O)c2cccc(C(=O)N3CCCC3c3cccs3)c2)cn1 (stereo partly drawn) [Example 31, N-{(1S,2R)-1-Benzyl-3-[(1-ethyl-1H-pyrazol-4-ylmethyl)-amino]-2-hydroxy-propyl}-3-(2-thiophen-2-yl-pyrrolidine-1-carbonyl)-benzamide]	0.239 µM
CCn1cc(CNC[C@@H](O)[C@H](Cc2ccccc2)NC(=O)c2cc(C)cc(C(=O)N3CCC[C@@H]3c3nc(C)cs3)c2)cn1 [Example 34, N-{(1S,2R)-1-Benzyl-3-[(1-ethyl-1H-pyrazol-4-ylmethyl)-amino]-2-hydroxy-propyl}-3-methyl-5-[(R)-2-(4-methyl-thiazol-2-yl)-pyrrolidine-1-carbonyl]-benzamide]	0.145 µM

Further molecules by falling IC50, results first:

IC50	SMILES
0.511 µM	COc1cccc(CNC[C@@H](O)[C@H](Cc2ccccc2)NC(=O)c2cccc(C(=O)N(C)Cc3ccccn3)c2)c1 [Example 28, N-[(1S,2R)-1-Benzyl-2-hydroxy-3-(3-methoxy-benzylamino)-propyl]-N′-methyl-N′-pyridin-2-ylmethyl-isophthalamide]
0.314 µM	COc1cccc(CNC[C@@H](O)[C@H](Cc2ccccc2)NC(=O)c2cccc(C(=O)N3CCCC3c3ccc(C)s3)c2)c1 (stereo partly drawn) [Example 27, N-[(1S,2R)-1-Benzyl-2-hydroxy-3-(3-methoxy-benzylamino)-propyl]-3-[2-(5-methyl-thiophen-2-yl)-pyrrolidine-1-carbonyl]-benzamide]
0.138 µM	O=C(N[C@@H](Cc1ccccc1)[C@H](O)CNCc1cccc(OC(F)(F)F)c1)c1cccc(C(=O)N2CCCC2c2cccs2)c1 (stereo partly drawn) [Example 32, N-[(1S,2R)-1-Benzyl-2-hydroxy-3-(3-trifluoromethoxy-benzylamino)-propyl]-3-(2-thiophen-2-yl-pyrrolidine-1-carbonyl)-benzamide]
0.0577 µM	CCn1cc(CNC[C@@H](O)[C@H](Cc2ccccc2)NC(=O)c2cccc(C(=O)N3CCCC3c3ccccc3)c2)cn1 (stereo partly drawn) [Example 23, N-{(1S,2R)-1-Benzyl-3-[(1-ethyl-1H-pyrazol-4-ylmethyl)-amino]-2-hydroxy-propyl}-3-(2-phenyl-pyrrolidine-1-carbonyl)-benzamide]
0.016 µM	COc1cccc(CNC[C@@H](O)[C@H](Cc2ccccc2)NC(=O)c2cccc(C(=O)N3CCCC3c3cccs3)c2)c1 (stereo partly drawn) [Example 30, N-[(1S,2R)-1-Benzyl-2-hydroxy-3-(3-methoxy-benzylamino)-propyl]-3-(2-thiophen-2-yl-pyrrolidine-1-carbonyl)-benzamide]

From patent US20120053200A1, “BACE 2 INHIBITORS” (priority 2010, published 2012)
